Laboratory results: patent publication JP2011032172A, “酸化ストレス低減剤。” (Mitsubishi Gas Chemical Co Inc, priority 2009, dated 2011)

Experiments:
[1] = system: hexanoyl-lysine (ヘキサノイルリジン(HEL)); assay: urinary hexanoyl-lysine (HEL) production rate in the same human trial (ELISA); format: in vivo; details: healthy adult men and women 45-65 years; PQQ disodium salt 20 mg hard capsule after breakfast daily, 3 months; urine from same two groups as Example 1; result in words (rate calculated in pmol/kg/hr)
8−OHdG = assay: urinary 8-OHdG production rate in placebo-controlled double-blind parallel-group human trial (ELISA); format: in vivo; details: healthy adult men and women 45-65 years; PQQ disodium salt 20 mg hard capsule after breakfast daily, 3 months; early-morning urine before and at 4, 8, 12 weeks; result in words (rate calculated in ng/kg/hr)

For `O=C(O)c1cc(C(=O)O)c2c(n1)C(=O)C(=O)c1cc(C(=O)O)[nH]c1-2` [PQQ, ピロロキノリンキノン, 二ナトリウム塩], the HEL production rate [1] was “低下傾向” and the “8−OHdG production rate” value (8−OHdG) was “低下傾向”.
